One series concerns CST. To be noted: cited from earlier work.
Series [1] concerns the target T1, mCST (Mus musculus, UniProt Q61420).
T1 sequence (Q61420 1-336): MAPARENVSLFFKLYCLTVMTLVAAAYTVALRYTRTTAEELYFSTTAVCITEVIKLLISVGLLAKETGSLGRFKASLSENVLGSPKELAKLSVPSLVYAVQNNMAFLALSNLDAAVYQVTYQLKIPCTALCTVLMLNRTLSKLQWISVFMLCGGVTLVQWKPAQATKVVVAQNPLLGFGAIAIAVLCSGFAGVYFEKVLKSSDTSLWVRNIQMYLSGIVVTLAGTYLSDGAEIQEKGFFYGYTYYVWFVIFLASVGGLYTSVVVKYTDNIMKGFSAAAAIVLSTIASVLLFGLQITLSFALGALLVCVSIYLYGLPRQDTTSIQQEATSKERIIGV
As to the kind of experiment: Scintillation proximity binding assay (SPA), displacement of 30 nM [3H]CMP. Further details: Full-length mCST cDNA was synthesized (Bio Basic) and subcloned into the Pichia pastoris expression vector pPICZ; made in house; host or cells: Pichia pastoris. The protocol: Figure 1. Functional properties of mCST. (A) Purified, detergent-solubilized mCST was bound to SPA beads and the indicated compound was titrated against 30 nM [^3H]CMP to determine its affinity. Solid symbols denote titrations done with mCST and the open symbols are for mCST∆C. (B) Time course of 30 µM CMP-Sia uptake for purified mCST reconstituted into lipid vesicles with (black) or without (red) 300 µM CMP inside the vesicles. […] (C) The initial velocity of CMP-Sia uptake for either mCST (solid circles) or mCST∆C (open circles) reconstituted into CMP-filled vesicles is plotted as a function of substrate concentration to determine the Km and Vmax for transport. In all panels, the symbols show the mean ± standard error of the mean (SEM) for n = 2, except for the CMP titrations in (A), and the titration for mCST in (C) where n = 4. Figure 1—figure supplement 1. Description of SLC35 proteins. (A) Diagram of the nucleotide-sugar transporter (NST) transport cycle. Nucleotide sugars are first synthesized in the cytoplasm (or nucleus for CMP-Sia). They are then transported into the Golgi lumen by NSTs (blue box). A large family of glycosyltransferase enzymes transfers the sugar to a glycan acceptor, leaving behind the nucleotide monophosphate (NMP), which is then transported back to the cytoplasm by the NST. (B) A list of proteins in the SLC35 family with a known function and the associated nucleotide sugar(s) that they transport. SLC35B2 and SLC35B3 are listed for completeness even though they transport PAPS, the substrate used in sulfonation reactions inside the Golgi. In mammals, mannose (Man) is only present in the oligosaccharide precursor that is synthesized in the cytoplasm and then transported across the ER membrane, by a family of transporters distinct from NSTs, before being added to nascent polypeptides to form the base for N-linked glycans. […] (C) The structural formulas of the nucleotide phosphate (left) and sugar (right) moieties of nucleotide sugars are shown. The ‘‘~” symbol indicates the bond that links the two moieties. In mammals, two types of sialic acid may be transported into the Golgi: N-acetylneuraminic acid (Neu5Ac) or N-glycolylneuraminic acid (Neu5Gc). The ring atoms for the nucleobases and Neu5Ac and Gal are labeled. [drawing 1] Figure 1—figure supplement 2. Sequence alignment of mCST with other SLC35 and DMT proteins. The two letter prefix for each sequence name indicates the species as follows: mm: Mus musculus; hs: Homo sapiens; sc: Saccharomyces cerevisiae; sn: Starkeya novella; gs: Galdieria sulphuraria. […] The labeled yellow bars under the sequences indicate the extent of each TM. The interfacial alpha helix (IH) connecting TMs 2 and 3 is also indicated. [drawing 2] Figure 1—figure supplement 3.
Background: Scintillation proximity formats need no separation of bound from free tracer.

Series [2] addresses T2, mCST∆C (Mus musculus, UniProt Q61420).
T2 construct: modifying the full-length construct using site-directed mutagenesis to remove the last 15 residues (322-336); made in house; host or cells: Pichia pastoris
T2 sequence (Q61420 1-321): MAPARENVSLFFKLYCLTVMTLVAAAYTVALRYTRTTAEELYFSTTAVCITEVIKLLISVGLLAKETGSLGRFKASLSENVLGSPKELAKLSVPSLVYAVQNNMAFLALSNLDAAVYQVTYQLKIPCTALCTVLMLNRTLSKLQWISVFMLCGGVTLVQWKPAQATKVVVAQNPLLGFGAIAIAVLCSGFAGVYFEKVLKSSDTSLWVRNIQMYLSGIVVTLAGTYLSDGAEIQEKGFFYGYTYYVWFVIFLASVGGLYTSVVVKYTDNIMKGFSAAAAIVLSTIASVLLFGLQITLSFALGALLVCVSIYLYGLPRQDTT
Described as above. To be noted: full SPA titration against 30 nM [3H]CMP. As to the method: Figure 1. Functional properties of mCST. (A) Purified, detergent-solubilized mCST was bound to SPA beads and the indicated compound was titrated against 30 nM [^3H]CMP to determine its affinity. Solid symbols denote titrations done with mCST and the open symbols are for mCST∆C. (B) Time course of 30 µM CMP-Sia uptake for purified mCST reconstituted into lipid vesicles with (black) or without (red) 300 µM CMP inside the vesicles. […] (C) The initial velocity of CMP-Sia uptake for either mCST (solid circles) or mCST∆C (open circles) reconstituted into CMP-filled vesicles is plotted as a function of substrate concentration to determine the Km and Vmax for transport. In all panels, the symbols show the mean ± standard error of the mean (SEM) for n = 2, except for the CMP titrations in (A), and the titration for mCST in (C) where n = 4. Figure 1—figure supplement 1. Description of SLC35 proteins. (A) Diagram of the nucleotide-sugar transporter (NST) transport cycle. Nucleotide sugars are first synthesized in the cytoplasm (or nucleus for CMP-Sia). They are then transported into the Golgi lumen by NSTs (blue box). A large family of glycosyltransferase enzymes transfers the sugar to a glycan acceptor, leaving behind the nucleotide monophosphate (NMP), which is then transported back to the cytoplasm by the NST. (B) A list of proteins in the SLC35 family with a known function and the associated nucleotide sugar(s) that they transport. SLC35B2 and SLC35B3 are listed for completeness even though they transport PAPS, the substrate used in sulfonation reactions inside the Golgi. In mammals, mannose (Man) is only present in the oligosaccharide precursor that is synthesized in the cytoplasm and then transported across the ER membrane, by a family of transporters distinct from NSTs, before being added to nascent polypeptides to form the base for N-linked glycans. […] (C) The structural formulas of the nucleotide phosphate (left) and sugar (right) moieties of nucleotide sugars are shown. The ‘‘~” symbol indicates the bond that links the two moieties. […]

The target of series [3] is T2, mCST∆C. As to the kind of experiment: Intrinsic tryptophan fluorescence quenching assay. It counts as binding. To be noted: fit of tryptophan fluorescence quenching, read-out: Kd (Trp-FL).
The nature of series [4]: HPLC analysis of CMP-Sia hydrolysis in aqueous buffer. The series is classed as physicochemical. To be noted: AnP-treated CMP-Sia, AnP removed, pH 7.5 buffer, room temperature.
For series [5] the following is noted: no reference given; cited from earlier work.
The target in series [6] is T3, mCST (W145L) (Mus musculus, UniProt Q61420, W145L).
T3 sequence (Q61420 1-336 W145L): T1 sequence (Q61420 1-336) with W145L
As to the kind of experiment: SPA two-point CMP binding.

Series [7] deals with T4, mCST (W160L) (Mus musculus, UniProt Q61420, W160L).
T4 sequence (Q61420 1-336 W160L): T1 sequence (Q61420 1-336) with W160L
As to the kind of experiment: SPA two-point CMP binding.

In the next series the target is T5, mCST (W207L) (Mus musculus, UniProt Q61420, W207L).
T5 sequence (Q61420 1-336 W207L): T1 sequence (Q61420 1-336) with W207L
As to the kind of experiment: SPA two-point CMP binding.

The next series concerns the target T6, mCST (W207F) (Mus musculus, UniProt Q61420, W207F).
T6 sequence (Q61420 1-336 W207F): T1 sequence (Q61420 1-336) with W207F
As to the kind of experiment: SPA two-point CMP binding.

Series [8] concerns the target T7, mCST (W247L) (Mus musculus, UniProt Q61420, W247L).
T7 sequence (Q61420 1-336 W247L): T1 sequence (Q61420 1-336) with W247L
As to the kind of experiment: SPA two-point CMP binding.

Series [9] has as its target T1, mCST. As to the kind of experiment: Intrinsic tryptophan fluorescence quenching assay.
The target in series [10] is T3, mCST (W145L). As to the kind of experiment: Intrinsic tryptophan fluorescence quenching assay.
Series [11] deals with T4, mCST (W160L). As to the kind of experiment: Intrinsic tryptophan fluorescence quenching assay.
In series [12] the target is T7, mCST (W247L). As to the kind of experiment: Intrinsic tryptophan fluorescence quenching assay.
For another series, the system named is mCST Trp207 mutants. As to the kind of experiment: Intrinsic tryptophan fluorescence quenching assay. To be noted: W207L and W207F mutants.
A further series has as its system UDP-GlcNAc transporter. Further details: method as in Waldman and Rudnick, 1990. To be noted: monoanionic UMP compared to dianionic UMP; ref Waldman and Rudnick, 1990; cited from earlier work.

SMILES strings stand for the structures. Residue numbers refer to the chain shown, from its start. “And” between values parts separate entries of the source, which are not always exact repeats. Equal values may be shown once.

With `CC(=O)N[C@H]1[C@H]([C@H](O)[C@H](O)CO)OC(O)(C(=O)O)C[C@@H]1O` (stereo partly drawn) [Sia, sialic acid], in the series on CST (ref Carey et al., 1980, Perez and Hirschberg, 1987), the “Competitive inhibition of CMP-Sia transport (in words)” value is given as “does not competitively inhibit CMP-Sia transport”. Also, the “Binding to mCST (in words)” value on mCST [1] (SPA titration, Figure 1A) was “does not bind mCST”.

With `Nc1nc2c(ncn2[C@@H]2O[C@H](COP(=O)(O)O)[C@@H](O)[C@H]2O)c(=O)[nH]1` [GMP, Guanosine 5′-monophosphate], the Kd on mCST∆C [2] is 5380 ± 1150 µM.

Turning to `Nc1ccn([C@@H]2O[C@H](COP(=O)(O)O)[C@@H](O)[C@H]2O)c(=O)n1` [CMP, Cytidine 5'-monophosphate], the Kd at mCST∆C [2] stood at 1.8 ± 0.4 µM; on mCST∆C [3], 11.1 ± 2.9 µM; at mCST (W145L) [6], 0.8 ± 0.3 µM; on mCST (W160L) [7], 1.6 ± 0.4 µM; on mCST (W207L), 1.5 ± 0.4 µM; on mCST (W207F) it was 3.8 ± 1.5 µM. The Kd at mCST (W247L) [8] is 2.4 ± 1.5 µM; at mCST [9], 2.9 ± 1.1 µM; on mCST (W145L) [10] it was 3.3 ± 1 µM; at mCST (W160L) [11] it was 11.9 ± 2.4 µM; at mCST (W247L) [12], 7.4 ± 2.6 µM; on mCST [1] (crude estimation from two-point SPA data (30 nM [3H]CMP ± 5 µM unlabeled CMP), mCST, read-out: Kd (SPA 2-point)), 5.5 ± 1.6 µM. At mCST [1] (full SPA titration against 30 nM [3H]CMP, purified detergent-solubilized mCST, read-out: Kd (SPA titration)), the Kd amounted to 6.3 ± 1.2 µM. In series [4], the “Rate of CMP generation from CMP-Sia hydrolysis” value was 0.0051 ± 0.00014 %/min and 0.0051 %/min. Also, the “Highest pKa of the phosphate group” value in series [5] was 6.3. The “Quenching of intrinsic tryptophan fluorescence on CMP binding (in words)” value on mCST [9] (wild-type mCST) was “significantly quenched”. Further, the “Quenching of intrinsic tryptophan fluorescence by CMP (in words)” value in the series on mCST Trp207 mutants is reported as “lack of any quenching”. For the same compound, on mCST [1] (CMP versus CMP-Sia, Figure 1A), the “Fold higher affinity of CMP towards mCST than CMP-Sia” value was ~ 100 fold.

As for `O=c1ccn([C@@H]2O[C@H](COP(=O)(O)O)[C@@H](O)[C@H]2O)c(=O)[nH]1` [UMP, Uridine 5′-monophosphate], the Kd on mCST∆C [2] stood at 1620 ± 1120 µM. In addition, in the series on CST (ref Chiaramonte et al., 2001), the “Fold higher Ki for inhibiting CMP-Sia transport (versus CMP)” value was 20 fold. Further, in the series on UDP-GlcNAc transporter, the “Substrate quality for UDP-GlcNAc transporter (in words)” value was “poor substrate”.
